A short description of the data set: solubility of oAB in water depending on the pH. The following applies: plasma or biological fluid; pH between 3.0 and 4.0; fermentation broth; read-out: oAB remaining dissolved at the solubility minimum. In kind it is physicochemical.

Molecules are shown by their SMILES. Converted amounts (≈) assume the structure as drawn.

For `Nc1ccccc1C(=O)O` [oAB, 2-aminobenzoic acid], the solubility (usually the concentration that dissolves in the medium under given conditions) is ~5000 µg/mL (≈ 36.5 mM).

The values above are taken from patent US11155844B2, “Process for the production of ortho-aminobenzoic acid and/or aniline from fermentable substrate using recombinant yeast” (Covestro Deutschland AG, priority 2015, dated 2021).
